Active and inactive are the calls of the source. The rule behind the calls is not given here.
Assays:
Staphylococcus aureus [1] = experiment: Antibiofilm activity against Methicillin resistant Staphylococcus aureus ATCC 43300 assessed as inhibition of biofilm formation at 5 uM incubated for 48 hrs by crystal violet staining based microplate reader analysis; type: functional, organism-based
Staphylococcus aureus [2] = experiment: Antibacterial activity against Methicillin resistant Staphylococcus aureus ATCC 43300 assessed as reduction in bacterial growth at 2 to 5 uM; type: functional, organism-based; details: dose 2-5 µM
Staphylococcus aureus [3] = experiment: Antibacterial activity against Staphylococcus aureus infected in male Sprague-Dawley rat wound model assessed as wound closure at 2 uM administered every 2 days and measured on day 4 relative to control; type: functional; details: time 4 day
Staphylococcus aureus [4] = experiment: Antibacterial activity against Methicillin resistant Staphylococcus aureus infected in male Sprague-Dawley rat wound model assessed as wound closure at 2 uM administered every 2 days and measured on day 10 (reference value: 66.84%); type: functional; details: time 10 day
Staphylococcus aureus [5] = experiment: Antibacterial activity against Staphylococcus aureus infected in male Sprague-Dawley rat wound model assessed as wound healing at 2 uM administered every 2 days and measured after 10 days; type: functional, organism-based; details: time 10.0 day
Staphylococcus aureus [6] = experiment: Antibacterial activity against Staphylococcus aureus infected in male Sprague-Dawley rat wound model assessed as wound healing with newly formed epidermal tissues at 2 uM administered every 2 days and measured after 10 days; type: functional, organism-based; details: time 10.0 day
Staphylococcus aureus [7] = experiment: Antimicrobial activity against Staphylococcus aureus ATCC 29213 assessed as inhibition of microbial growth at 80 uM incubated for 10 hrs by spectrophotometric analysis; type: functional, organism-based
Staphylococcus aureus [8] = experiment: Antimicrobial activity against Staphylococcus aureus ATCC 29213 assessed as appearance of deformed bacteria at 20 uM incubated for 2 hrs by SEM analysis; type: functional, organism-based
Staphylococcus aureus [9] = experiment: Antimicrobial activity against Staphylococcus aureus ATCC 29213 assessed as reduction in bacterial survival at 20 uM incubated for 8 hrs by spectrophotometric analysis relative to control; type: functional
Staphylococcus aureus [10] = experiment: Antimicrobial activity against Staphylococcus aureus ATCC 29213 assessed as appearance of wrinkled bacteria by measuring leakage at 20 uM incubated for 2 hrs by SEM analysis; type: functional, organism-based
Staphylococcus aureus [11] = experiment: Antimicrobial activity against Staphylococcus aureus ATCC 29213 assessed as appearance of damaged bacteria by measuring leakage at 20 uM incubated for 2 hrs by SEM analysis; type: functional, organism-based
Staphylococcus aureus [12] = experiment: Antimicrobial activity against Staphylococcus aureus ATCC 29213 assessed as large area of intracellular content at 20 uM incubated for 2 hrs by SEM analysis; type: functional, organism-based
Staphylococcus aureus [13] = experiment: Antibiofilm activity against Staphylococcus aureus ATCC 29213 assessed as inhibition of biofilm formation at 5 uM incubated for 48 hrs by crystal violet staining based microplate reader analysis; type: functional, organism-based
Staphylococcus aureus [14] = experiment: Antibiofilm activity against Staphylococcus aureus ATCC 29213 assessed as biofilm eradication at 10 uM incubated for 48 hrs by crystal violet staining based microplate reader analysis relative to control; type: functional
Staphylococcus aureus [15] = experiment: Antibiofilm activity against Staphylococcus aureus ATCC 29213 assessed as damaged bacterial cells by measuring red fluorescence at 20 uM incubated for 12 hrs by SYTO9/PI staining based confocal laser scanning microscopic analysis; type: functional, organism-based
Staphylococcus aureus [16] = experiment: Antibiofilm activity against Staphylococcus aureus ATCC 29213 assessed as increase in green fluorescence at 5 uM incubated for 12 hrs by SYTO9/PI staining based confocal laser scanning microscopic analysis; type: functional, organism-based
Staphylococcus aureus [17] = experiment: Antimicrobial activity against Staphylococcus aureus ATCC 29213 assessed as intracellular content leakage at 20 uM incubated for 2 hrs by SEM analysis; type: functional, organism-based
[18] = system: Aggregatibacter actinomycetemcomitans; experiment: Antibacterial activity against Actinobacillus actinomycetemcomitans ATCC 43717 incubated for 18 hrs; type: functional
Escherichia coli [19] = experiment: Antibacterial activity against Escherichia coli ATCC 25922 incubated for 18 hrs; type: functional
Staphylococcus aureus [20] = experiment: Antibacterial activity against Methicillin resistant Staphylococcus aureus ATCC 43300 incubated for 18 hrs; type: functional
Streptococcus mutans [21] = experiment: Antibacterial activity against Streptococcus mutans ATCC 25175 incubated for 18 hrs; type: functional
[22] = Hemolytic activity in rabbit RBC assessed as hemolytic rate at 32 uM incubated for 1 hrs by spectrophotometric analysis; type: toxicity, cell-based, Oryctolagus cuniculus, Erythrocyte; details: red blood cells (RBC), read-out: Activity
MC3T3-E1 [23] = experiment: Cytotoxicity against mouse MC3T3-E1 cells assessed as reduction in cell viability at 2 uM incubated for 2 days by CCK-8 assay relative to control; type: toxicity, cell-based; details: mc3t3-e1, 48 h, time 2 day
Staphylococcus aureus [24] = experiment: Antimicrobial activity against Staphylococcus aureus ATCC 29213 assessed as inhibition of microbial growth at 5 uM incubated for 10 hrs by spectrophotometric analysis relative to control; type: functional; design: scale not given: the % may be the effect or the level left
Staphylococcus aureus [25] = experiment: Antimicrobial activity against Staphylococcus aureus ATCC 29213 assessed as reduction in bacterial survival at 5 uM incubated for 2 hrs by spectrophotometric analysis relative to control; type: functional
Staphylococcus aureus [26] = experiment: Antimicrobial activity against Staphylococcus aureus ATCC 29213 assessed as reduction in bacterial survival at 5 uM incubated for 4 hrs by spectrophotometric analysis relative to control; type: functional
Staphylococcus aureus [27] = experiment: Antimicrobial activity against Staphylococcus aureus ATCC 29213 assessed as reduction in bacterial survival at 5 uM incubated for 8 hrs by spectrophotometric analysis relative to control; type: functional
Staphylococcus aureus [28] = experiment: Antimicrobial activity against Staphylococcus aureus ATCC 29213 assessed as appearance of damaged bacteria at 5 uM incubated for 2 hrs by SEM analysis relative to control; type: functional
Staphylococcus aureus [29] = experiment: Antimicrobial activity against Staphylococcus aureus ATCC 29213 assessed as disappearance of normal shape at 20 uM incubated for 2 hrs by SEM analysis; type: functional, organism-based
Staphylococcus aureus [30] = experiment: Antimicrobial activity against Staphylococcus aureus ATCC 29213 assessed as appearance of intracellular content in whole area at 20 uM incubated for 2 hrs by SEM analysis; type: functional, organism-based
Staphylococcus aureus [31] = experiment: Antibiofilm activity against Staphylococcus aureus ATCC 29213 assessed as inhibition of biofilm formation at 2 uM incubated for 48 hrs by crystal violet staining based microplate reader analysis; type: functional, organism-based
Staphylococcus aureus [32] = experiment: Antibiofilm activity against Staphylococcus aureus ATCC 29213 assessed as disappearance of colony formation at 2 uM incubated for 48 hrs by crystal violet staining based microplate reader analysis; type: functional, organism-based
Staphylococcus aureus [33] = experiment: Antibiofilm activity against Staphylococcus aureus ATCC 29213 assessed as damaged bacterial cells by measuring red fluorescence at 5 uM incubated for 12 hrs by SYTO9/PI staining based confocal laser scanning microscopic analysis; type: functional, organism-based
[34] = system: Aggregatibacter actinomycetemcomitans; experiment: Bactericidal activity against Actinobacillus actinomycetemcomitans ATCC 43717 incubated for 18 hrs; type: functional
Escherichia coli [35] = experiment: Bactericidal activity against Escherichia coli ATCC 25922 incubated for 18 hrs; type: functional
Staphylococcus aureus [36] = experiment: Bactericidal activity against Methicillin resistant Staphylococcus aureus ATCC 43300 incubated for 18 hrs; type: functional
Streptococcus mutans [37] = experiment: Bactericidal activity against Streptococcus mutans ATCC 25175 incubated for 18 hrs; type: functional
Streptococcus mutans [38] = experiment: Antibiofilm activity against Streptococcus mutans ATCC 25175 assessed as inhibition of biofilm formation at 5 uM incubated for 48 hrs by crystal violet staining based microplate reader analysis; type: functional, organism-based
[39] = system: Aggregatibacter actinomycetemcomitans; experiment: Antibiofilm activity against Actinobacillus actinomycetemcomitans ATCC 43717 assessed as inhibition of biofilm formation at 5 uM incubated for 48 hrs by crystal violet staining based microplate reader analysis; type: functional, organism-based
Staphylococcus aureus [40] = experiment: Antibiofilm activity against Methicillin resistant Staphylococcus aureus ATCC 43300 assessed as reduction in colony count at 2 to 5 uM incubated for 24 hrs by CFU assay; type: functional, organism-based; details: dose 2-5 µM
MC3T3-E1 [41] = experiment: Cytotoxicity against mouse MC3T3-E1 cells assessed as reduction in cell viability at > 10 uM incubated for 2 days by CCK-8 assay; type: toxicity, cell-based; details: mc3t3-e1, 48 h, time 2 day
Staphylococcus aureus [42] = experiment: Antibacterial activity against Methicillin resistant Staphylococcus aureus infected in male Sprague-Dawley rat wound model assessed as wound closure at 2 uM administered every 2 days and measured on day 7 (reference value: 66.84%); type: functional; details: time 7 day

## CCn1cc(C(=O)O)c(=O)c2cc(F)c(N3CCNCC3)cc21
Staphylococcus aureus [1]
  Activity: Active; Weaker Inhibition Of Biofilm Observed
Staphylococcus aureus [2]
  Activity: inactive

## CO[C@@]1(NC(=O)Cc2cccs2)C(=O)N2C(C(=O)O)=C(COC(N)=O)CS[C@@H]21 [CEFOXITIN]
Staphylococcus aureus [1]
  Activity: Active; Weaker Inhibition Of Biofilm Observed
Staphylococcus aureus [3]
  Activity: 66.13%
Staphylococcus aureus [4]
  Activity: 77.35%
Staphylococcus aureus [5]
  Activity: Active
Staphylococcus aureus [6]
  Activity: Active
Staphylococcus aureus [2]
  Activity: inactive

## H-FGLDIIKKIAESF-NH2
Staphylococcus aureus [7]
  Activity: Active
Staphylococcus aureus [8]
  Activity: Active

## H-FGLKIIKKIAKSF-NH2
Staphylococcus aureus [9]
  Activity: 6.45%
Staphylococcus aureus [10]
  Activity: Active
Staphylococcus aureus [11]
  Activity: Active
Staphylococcus aureus [12]
  Activity: Active
Staphylococcus aureus [13]
  Activity: Active
Staphylococcus aureus [14]
  Activity: 100%
Staphylococcus aureus [15]
  Activity: Active
Staphylococcus aureus [16]
  Activity: inactive

## H-FLFDIIKKIAESG-NH2
Staphylococcus aureus [7]
  Activity: Active

## H-GLFDIIKKIAEFS-NH2
Staphylococcus aureus [8]
  Activity: Active

## H-GLFDIIKKIAESF-NH2
Staphylococcus aureus [17]
  Activity: Active
[18]
  MIC: ≥ 80 µM
Escherichia coli [19]
  MIC: ≥ 80 µM
Staphylococcus aureus [20]
  MIC: ≥ 80 µM
Streptococcus mutans [21]
  MIC: ≥ 80 µM
[22]
  hemolysis at 1 h, 32 µM: < 10%
MC3T3-E1 [23]
  Activity: 91.16%

## H-GLFKIIKKIAKSF-NH2
Staphylococcus aureus [24]
  Activity: 100%
Staphylococcus aureus [9]
  Activity: 6.7%
Staphylococcus aureus [25]
  Activity: 11.54%
Staphylococcus aureus [26]
  Activity: 8.89%
Staphylococcus aureus [27]
  Activity: 8.24%
Staphylococcus aureus [12]
  Activity: Active
Staphylococcus aureus [28]
  Activity: 100%
Staphylococcus aureus [29]
  Activity: Active
Staphylococcus aureus [30]
  Activity: Active
Staphylococcus aureus [31]
  Activity: Active
Staphylococcus aureus [32]
  Activity: Active
Staphylococcus aureus [15]
  Activity: Active
Staphylococcus aureus [33]
  Activity: Active
[18]
  MIC: ≤ 10 µM
Escherichia coli [19]
  MIC: ≤ 10 µM
Staphylococcus aureus [20]
  MIC: ≤ 10 µM
Streptococcus mutans [21]
  MIC: ≤ 10 µM
[34]
  MBC: ≤ 10 µM
Escherichia coli [35]
  MBC: ≤ 10 µM
Staphylococcus aureus [36]
  MBC: ≤ 10 µM
Streptococcus mutans [37]
  MBC: ≤ 10 µM
Streptococcus mutans [38]
  Activity: Active
[39]
  Activity: Active
Staphylococcus aureus [1]
  Activity: Active
Staphylococcus aureus [40]
  Activity: Active
[22]
  hemolysis at 1 h, 32 µM: < 10%
MC3T3-E1 [23]
  Activity: 85.49%
MC3T3-E1 [41]
  Activity: Toxic
Staphylococcus aureus [3]
  Activity: 68.16%
Staphylococcus aureus [4]
  Activity: 100%
Staphylococcus aureus [42]
  Activity: <=92.65%
Staphylococcus aureus [5]
  Activity: Active
Staphylococcus aureus [6]
  Activity: Active

## H-GLFKIIKKIAKSG-NH2
Staphylococcus aureus [8]
  Activity: Active

— ChEMBL document CHEMBL6182917, “Molecular-Level Strategy from Bottom-Up to Acquire High-Efficiency Antimicrobial Peptides” (J Med Chem, 2025)
